Reference: US20130274104A1, “AGROCHEMICAL MIXTURES FOR INCREASING THE HEALTH OF A PLANT” (BASF SE, priority 2010, published 2013)

Tests used:
Assay type in all cases: in vivo
[1] = tested on: Maize (corn); experiment: Maize field trials 2009, grain yield as indicator of plant health; conditions: BBCH 55/57; for Yield (kg/ha): seven US locations
Description: Maize (corn) was grown in 2009 at seven locations in the U.S.A: Wyoming, Ill., Carlyle, Ill., Sparta, Ill., Manilla, Iowa, Blue Earth, Minn., Aurora, Nebr., and Tekamah, Nebr. The maize crop was planted at the local standard seeding rate with local standard row spacing. Each trial was set up as randomized complete block design with 8 replications. Plots consisted of 6-8 rows with the center two rows treated and harvested. Harvested plot size was at minimum 18.48 m^2.
The active ingredients were used as formulations. The formulations were used in the dose rates given below. The products were applied at tassel emergence (BBCH 55/57). […] The untreated control plots were treated with water only.
Grain yield (kg per ha) as an indicator for the health of a plant was assessed by harvesting the plants in the center rows of a plot (table 1). The efficacy was calculated as % increase of yield in the treatments compared to the untreated control using the following formula:
(§1) E=a/b−1•100 • a corresponds to the grain yield of the treated plants in kg/ha and • b corresponds to the grain yield of the untreated (control) plants in kg/ha

[2] = tested on: Soybeans; experiment: Soybean field trials 2009, grain yield as indicator of plant health
Description: (§2) Soybeans were grown in 2009 at eight locations in the U.S.A.: Jefferson, I A, Seymour, Ill., Sparta, Ill., Wyoming, Ill., Sheridan, Ind., Ozora, Mo., York, Nebr., and Centerville, S. Dak. The soybeans were planted at the local standard seeding rate with local standard row spacing. Each trial was setup as randomized complete block design with 6 replications. Plots consisted of 4 rows with the center two rows treated and harvested. Harvested plot size was minimum 15 m^2.
The active ingredients were used as formulations. The formulations were used in the dose rates given below. The products were applied when the soybeans had developed four to six trifoliates.
The mixture comprising pyraclostrobin and harpinαβ as shown in table 2 below was applied as a tankmix of both formulations.
Grain yield (kg per ha) was assessed as an indicator of plant health (table 2) by harvesting the plants in the center rows of a plot. The efficacy was calculated as % increase of yield in the treatments compared to the untreated control:
as §1

[3] = tested on: Soybeans; experiment: Soybean leaf chlorophyll content, FIELD SCOUT CM1000 chlorophyll meter, Sparta, Ill.; conditions: Harpinαβ 70 g/ha, Pyraclostrobin 0.44 l/ha
Description: as §2
The active ingredients were used as formulations. The formulations were used in the dose rates given below. The products were applied when the soybeans had developed four to six trifoliates. Pyraclostrobin (compound A) was applied once as HEADLINE® (250 g active per liter; EC formulation) with a product rate of 0.44 I/ha.
The harpinαβ peptide (compound B) was applied as the experimental WG formulation EBC-351 (1% active ingredient) with a product rate of 70 g/ha. The mixture comprising pyraclostrobin and harpinαβ as shown in table 2 below was applied as a tankmix of both formulations.
At the Sparta, Ill., location, the chlorophyll content (a well known indicator of the health of a plant) of 5 plants in a plot was measured with a FIELD SCOUT CM1000™ (Spectrum Technologies, Plainfield, Ill.) chlorophyll meter. Values were reported as a mean value per plot. The FIELD SCOUT CM1000™ senses light at wavelengths of 700 nm and 840 nm to estimate quantity of chlorophyll in leaves. The ambient and reflected light at each wavelength is measured. Light absorbtion at 700 nm by chlorophyll reduces the reflection at this wavelength whereas the light at 840 nm is unaffected and serves as an indication of light reflection due to physical characteristics of the leaf like a hairy leaf surface. Subsequently, a chlorophyll index value (0-999) is calculated from the measured ambient and reflected light data.
Based on the index values the efficacy of the treatments were calculated as described for the grain yield above. Similarly, the expected efficacy was estimated using Colby's formula as described above.

COC(=O)N(OC)c1ccccc1COc1ccn(-c2ccc(Cl)cc2)n1 [Pyraclostrobin]
OE [%] (Observed efficacy, % increase of yield compared to the untreated control) ([1]; Harpinαβ 35 g/ha, Pyraclostrobin 0.3 l/ha, alone or combined): 1.10% | OE [%] (Observed efficacy, % increase of yield compared to the untreated control) ([1]; Pyraclostrobin 0.6 l/ha, Harpinαβ 35 g/ha in the combination): 0.10% | Yield (kg/ha) ([1]; product rates Harpinαβ 35 g/ha (1%), Pyraclostrobin 0.3 l/ha (250 g/l), alone or combined): 13218.9 kg/ha | Yield (kg/ha) ([1]; product rates Pyraclostrobin 0.6 l/ha (250 g/l), Harpinαβ 35 g/ha (1%) in the combination): 13087.1 kg/ha | OE [%] (Observed efficacy, % increase of yield compared to the untreated control) ([2]; Harpinαβ 70 g/ha, Pyraclostrobin 0.44 l/ha, average of all trials): 0.1% | effect on grain yield, in words ([2]; Pyraclostrobin 0.44 l/ha applied at early soybean development): did not increase the grain yield on an average | Yield (kg/ha) ([2]; product rates Harpinαβ 70 g/ha (1%), Pyraclostrobin 0.44 l/ha (250 g/l), four to six trifoliates, eight US locations): 3319 kg/ha | effect on leaf chlorophyll content, in words [3]: increases the chlorophyll content | OE [%] (Observed efficacy, chlorophyll index compared to the untreated control) ([3]; Sparta, Ill.): 14.13% | CC [0-999] (Chlorophyll Content, chlorophyll index value) ([3]; Sparta, Ill., mean value per plot, 5 plants): 773.50
